# Key:
# Type in all cases: in vivo
# [1] = system: redroot pigweed (Amaranthus retroflexus, AMARE); test: Pre-emerge test, greenhouse herbicide activity screening; conditions: pre-emerge, rated 14 days after application, 0 = no damage, 100 = complete death
# Outline: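 Rating: 0–100 visual injury, 14 DAA. Application: acetone, 187 l/ha, 15–1000 g ai/ha, flat-fan track sprayer with nozzle 40–45 cm above soil or canopy. Post-emerge runs used 0.25% v/v surfactant on 2–3 leaf plants.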
# [2] = system: barnyardgrass (Echinochloa crus-galli, ECHCG); test: as above; conditions: pre-emerge, rated 14 days after application, 0 = no damage, 100 = complete death
# Outline: (§1)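 Plants grown in 10 cm pots of sandy loam mix received acetone-dissolved compounds through a moving flat-fan nozzle. Doses ranged from 15 to 1000 g ai/ha. Pre-emerge pots were seeded one day earlier, post-emerge pots 8–21 days earlier. Fourteen days on, each pot was graded 0–100 for damage.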
# [3] = system: green foxtail (Setaria viridis, SETVI); test: as above; conditions: pre-emerge, rated 14 days after application, 0 = no damage, 100 = complete death
# Outline: as §1
# [4] = system: ivyleaf morningglory (Ipomoea hederacea, IPOHE); test: as above; conditions: pre-emerge, rated 14 days after application, 0 = no damage, 100 = complete death
# Outline: as §1
# [5] = system: johnsongrass (Sorghum halepense, SORHA); test: as above; conditions: pre-emerge, rated 14 days after application, 0 = no damage, 100 = complete death
# Outline: as §1
# [6] = system: lambsquarters (Chenopodium album, CHEAL); test: as above; conditions: pre-emerge, rated 14 days after application, 0 = no damage, 100 = complete death
# Outline: as §1
# [7] = system: large crabgrass (Digitaria sanguinalis, DIGSA); test: as above; conditions: pre-emerge, rated 14 days after application, 0 = no damage, 100 = complete death
# Outline: as §1
# [8] = system: sicklepod (Cassia obtusifolia, CASOB); test: as above; conditions: pre-emerge, rated 14 days after application, 0 = no damage, 100 = complete death
# Outline: as §1
# [9] = system: velvetleaf (Abutilon theophrasti, ABUTH); test: as above; conditions: pre-emerge, rated 14 days after application, 0 = no damage, 100 = complete death
# Outline: as §1
# [10] = system: field corn (Zea mays L., var. Dekalb 535, CORN); test: Pre-emerge test, crop safety; conditions: pre-emerge, rated 14 days after application, 0 = no damage, 100 = complete death
# Outline: (§2)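 Herbicidal damage is scored 0 (none) to 100 (complete plant death) two weeks after a simulated field spray. Rates span 15–1000 g ai/ha, delivered in acetone at 187 l/ha. For post-emergence treatments, plants have 2–3 leaves and the spray carries 0.25% v/v non-ionic surfactant.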
# [11] = system: upland rice (Oryza sp., var. Tebonnet, RICE); test: Pre-emerge test, crop safety; conditions: pre-emerge, rated 14 days after application, 0 = no damage, 100 = complete death
# Outline: as §2
# [12] = system: barnyardgrass (Echinochloa crus-galli, ECHCG); test: Post-emerge test, greenhouse herbicide activity screening; conditions: phytotoxicity rating 0-100 (0 no damage, 100 complete death), 14 days after application
# Outline: (§3)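 Sandy loam pots; pre-emerge: sown 1 d pre-spray, surface-watered after, then bottom-watered. Post-emerge: sown 8–21 d before, 2–3 leaf stage, + 0.25% v/v NIS, bottom-watered. Acetone, 187 l/ha track spray, 15–1000 g ai/ha. 0–100 injury score, day 14.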
# [13] = system: common ragweed (Ambrosia artemisizfolia L., AMBEL); test: as above; conditions: 250 g ai/ha; phytotoxicity rating 0-100 (0 no damage, 100 complete death), 14 days after application
# Outline: as §3
# [14] = system: green foxtail (Setaria viridis, SETVI); test: as above; conditions: phytotoxicity rating 0-100 (0 no damage, 100 complete death), 14 days after application
# Outline: as §3
# [15] = system: ivyleaf morningglory (Ipomoea hederacea, IPOHE); test: as above; conditions: phytotoxicity rating 0-100 (0 no damage, 100 complete death), 14 days after application
# Outline: as §3
# [16] = system: johnsongrass (Sorghum halepense, SORHA); test: as above; conditions: phytotoxicity rating 0-100 (0 no damage, 100 complete death), 14 days after application
# Outline: as §3
# [17] = system: lambsquarters (Chenopodium album, CHEAL); test: as above; conditions: phytotoxicity rating 0-100 (0 no damage, 100 complete death), 14 days after application
# Outline: as §3
# [18] = system: large crabgrass (Digitaria sanguinalis, DIGSA); test: as above; conditions: phytotoxicity rating 0-100 (0 no damage, 100 complete death), 14 days after application
# Outline: as §3
# [19] = system: redroot pigweed (Amaranthus retroflexus, AMARE); test: as above; conditions: phytotoxicity rating 0-100 (0 no damage, 100 complete death), 14 days after application
# Outline: as §3
# [20] = system: sicklepod (Cassia obtusifolia, CASOB); test: as above; conditions: phytotoxicity rating 0-100 (0 no damage, 100 complete death), 14 days after application
# Outline: as §3
# [21] = system: velvetleaf (Abutilon theophrasti, ABUTH); test: as above; conditions: phytotoxicity rating 0-100 (0 no damage, 100 complete death), 14 days after application
# Outline: as §3
# [22] = system: field corn (Zea mays L., var. Dekalb 535, CORN); test: Post-emerge test, crop safety; conditions: phytotoxicity rating 0-100 (0 no damage, 100 complete death), 14 days after application
# Outline: (§4)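 Each test used a mechanized track sprayer delivering 187 l/ha of acetone solution at 15–1000 g ai/ha. Post-emerge foliage at 2–3 leaves was treated with added 0.25% v/v non-ionic surfactant and bottom-watered only. Injury was assessed on day 14, where 100 means total kill.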
# [23] = system: upland rice (Oryza sp., var. Tebonnet, RICE); test: Post-emerge test, crop safety; conditions: phytotoxicity rating 0-100 (0 no damage, 100 complete death), 14 days after application
# Outline: as §4
structure (smiles),measurement,setting,value
CCOC(=O)CC(=O)Nc1c(OC(=O)CC(=O)OCC)c(Cl)cc(F)c1-n1c(=O)cc(C(F)(F)F)n(C)c1=O [2-16],"Pre-emerge Herbicidal Activity AMARE (phytotoxicity rating, scale 0-100)",[1]; 63 g ai/ha,50
same,"Pre-emerge Herbicidal Activity AMARE (phytotoxicity rating, scale 0-100)",[1]; 250 g ai/ha,100
same,"Pre-emerge Herbicidal Activity ECHCG (phytotoxicity rating, scale 0-100)",[2]; 63 g ai/ha,0
same,"Pre-emerge Herbicidal Activity ECHCG (phytotoxicity rating, scale 0-100)",[2]; 250 g ai/ha,40
same,"Pre-emerge Herbicidal Activity SETVI (phytotoxicity rating, scale 0-100)",[3]; 63 g ai/ha,0
same,"Pre-emerge Herbicidal Activity SETVI (phytotoxicity rating, scale 0-100)",[3]; 250 g ai/ha,100
same,"Pre-emerge Herbicidal Activity IPOHE (phytotoxicity rating, scale 0-100)",[4]; 63 g ai/ha,0
same,"Pre-emerge Herbicidal Activity IPOHE (phytotoxicity rating, scale 0-100)",[4]; 250 g ai/ha,90
same,"Pre-emerge Herbicidal Activity SORHA (phytotoxicity rating, scale 0-100)",[5]; 63 g ai/ha,0
same,"Pre-emerge Herbicidal Activity SORHA (phytotoxicity rating, scale 0-100)",[5]; 250 g ai/ha,80
same,"Pre-emerge Herbicidal Activity CHEAL (phytotoxicity rating, scale 0-100)",[6]; 63 g ai/ha,95
same,"Pre-emerge Herbicidal Activity CHEAL (phytotoxicity rating, scale 0-100)",[6]; 250 g ai/ha,100
same,"Pre-emerge Herbicidal Activity DIGSA (phytotoxicity rating, scale 0-100)",[7]; 63 g ai/ha,0
same,"Pre-emerge Herbicidal Activity DIGSA (phytotoxicity rating, scale 0-100)",[7]; 250 g ai/ha,100
same,"Pre-emerge Herbicidal Activity CASOB (phytotoxicity rating, scale 0-100)",[8]; 63 g ai/ha,0
same,"Pre-emerge Herbicidal Activity CASOB (phytotoxicity rating, scale 0-100)",[8]; 250 g ai/ha,100
same,"Pre-emerge Herbicidal Activity ABUTH (phytotoxicity rating, scale 0-100)",[9]; 63 g ai/ha,80
same,"Pre-emerge Herbicidal Activity ABUTH (phytotoxicity rating, scale 0-100)",[9]; 250 g ai/ha,100
same,"Pre-emerge crop damage CORN (phytotoxicity rating, scale 0-100)",[10]; 63 g ai/ha,0
same,"Pre-emerge crop damage CORN (phytotoxicity rating, scale 0-100)",[10]; 250 g ai/ha,20
same,"Pre-emerge crop damage RICE (phytotoxicity rating, scale 0-100)",[11]; 63 g ai/ha,0
same,"Pre-emerge crop damage RICE (phytotoxicity rating, scale 0-100)",[11]; 250 g ai/ha,15
same,Post-emerge Herbicidal Activity ECHCG,[12]; 63 g ai/ha,90
same,Post-emerge Herbicidal Activity ECHCG,[12]; 250 g ai/ha,100
same,Post-emerge Herbicidal Activity AMBEL,[13],100
same,Post-emerge Herbicidal Activity SETVI,[14]; 63 g ai/ha,50
same,Post-emerge Herbicidal Activity SETVI,[14]; 250 g ai/ha,100
same,Post-emerge Herbicidal Activity IPOHE,[15]; 63 g ai/ha,99
same,Post-emerge Herbicidal Activity IPOHE,[15]; 250 g ai/ha,100
same,Post-emerge Herbicidal Activity SORHA,[16]; 63 g ai/ha,40
same,Post-emerge Herbicidal Activity SORHA,[16]; 250 g ai/ha,95
same,Post-emerge Herbicidal Activity CHEAL,[17]; 63 g ai/ha,80
same,Post-emerge Herbicidal Activity CHEAL,[17]; 250 g ai/ha,100
same,Post-emerge Herbicidal Activity DIGSA,[18]; 63 g ai/ha,20
same,Post-emerge Herbicidal Activity DIGSA,[18]; 250 g ai/ha,60
same,Post-emerge Herbicidal Activity AMARE,[19]; 63 g ai/ha,50
same,Post-emerge Herbicidal Activity AMARE,[19]; 250 g ai/ha,100
same,Post-emerge Herbicidal Activity CASOB,[20]; 63 g ai/ha,10
same,Post-emerge Herbicidal Activity CASOB,[20]; 250 g ai/ha,80
same,Post-emerge Herbicidal Activity ABUTH,[21]; 63 g ai/ha,100
same,Post-emerge Herbicidal Activity ABUTH,[21]; 250 g ai/ha,100
same,Post-emerge Herbicidal Activity CORN (crop damage),[22]; 63 g ai/ha,70
same,Post-emerge Herbicidal Activity CORN (crop damage),[22]; 250 g ai/ha,90
same,Post-emerge Herbicidal Activity RICE (crop damage),[23]; 63 g ai/ha,40
same,Post-emerge Herbicidal Activity RICE (crop damage),[23]; 250 g ai/ha,45
